Reference: ChEMBL document CHEMBL1149989, “Synthesis and biological evaluation of flavonoids and related compounds as gastroprotective agents” (1996)

Experiments:
Assay type in all cases: functional
[1] = tested on: Rattus norvegicus; assay: Gastroprotective activity in rat ethanol-induced damage model following intraperitoneal administration.; set-up: concentration or dose not given beside the values
[2] = tested on: Rattus norvegicus; assay: Effective dose for gastroprotective activity in rat ethanol-induced damage model following intraperitoneal administration.; conditions: ip
[3] = tested on: Rattus norvegicus; assay: Effective dose gastroprotective activity in rat ethanol-induced damage model following intraperitoneal administration.; conditions: ip
[4] = tested on: Rattus norvegicus; assay: Compound was tested for gastroprotective activity in rat ethanol-induced damage model following oral administration (0.1 mg/kg).

Row | Compound | Protection [1] | other results
1 | CC(C)Oc1ccc2c(=O)c(-c3ccccc3)coc2c1 [IPRIFLAVONE] | <10% | –
2 | Cc1cc(=O)c2ccccc2o1 | 76% | ED50 [2]: 5.4 mg/kg
3 | Cn1c(-c2cc(=O)c3ccccc3o2)cc2ccccc21 | 74% | –
4 | O=c1cc(-c2ccccc2)sc2ccccc12 | 67% | –
5 | O=c1c(-c2ccccc2)coc2ccccc12 [ISOFLAVONE] | <10% | –
6 | COc1cccc2c1C(=O)CC(c1ccccc1)O2 (configuration not stated) | 32% | –
7 | CCc1cc(=O)c2ccccc2o1 | 74% | ED50 [3]: 4.3 mg/kg
8 | CCCCC[C@H](O)/C=C/[C@H]1[C@H](O)CC(=O)[C@@H]1C/C=C\CCCC(=O)O [DINOPROSTONE] | – | Protection [4]: 64%
9 | O=C1CC(c2ccccc2)Oc2ccccc21 (configuration not stated) [FLAVANONE] | 24% | –
10 | Nc1ccccc1C(=O)/C=C/c1ccccc1 | 36% | –
11 | O=c1cc(-c2ccccc2)oc2ccccc12 [FLAVONE] | 88% | ED50 [2]: 6.9 mg/kg
12 | CN/C(=N\CCSCc1nc[nH]c1C)NC#N [CIMETIDINE] | – | Protection [4]: 14%
13 | COc1ccccc1C(=O)CC(=O)c1ccccc1 | 19% | –
14 | Oc1cc(-c2ccccc2)nc2ccccc12 | 17% | –
15 | O=c1cc(-c2cccs2)oc2ccccc12 | 82% | –
16 | O=c1cc(-c2cccnc2)oc2ccccc12 | 97% | –
17 | O=C(/C=C/c1ccccc1)c1ccccc1 [CHALCONE] | 32% | –
18 | COc1cccc2oc(C)cc(=O)c12 | 81% | –
19 | S=c1cc(-c2ccccc2)oc2ccccc12 | 58% | –
